Results: patent US9937235B2, “Lipidated peptides as anti-obesity agents” (USTAV ORGANICKE CHEMIE A BIOCHEMIE AKADEMIE VED CR, V.V.I, priority 2012, dated 2018)
Where a SMILES comes first, the peptide text is derived from it. Where no end group is shown, it is not given here. The star is where a group is joined. Myristoyl = CCCCCCCCCCCCCC(=O)*

What was measured:
fasted C57BL/6 mice [1] = experiment: Food intake in fasted mice after SC administration; format: in vivo, mouse; settings: for food intake / % control: SC administration, dose not stated for these substances; for % control: food intake vs saline
Summary of the method: (§1)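 Male C57BL/6 mice, food-deprived 17 h, received saline, PrRP or lipidated analogs either SC at 1-10 mg/kg or ICV into the third ventricle at 4 nmol/mouse.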

Rhesus monkey = format: in vivo; settings: single SC 1.0 mg/kg or 2.0 mg/kg, overnight fasted, between 1-6 hours, vs saline
Description: Food intake (amount of pellets consumed) was measured in Rhesus monkey (n=4) after a single subcutaneous administration of myristoylated human PrRP20 (analog no. 55).
The study was conducted on overnight fasted animals in Meditox breeding facility (Konárovice, Czech Republic). Each animal received a subcutaneous injection of saline, or of analog 55 in a dose of 1.0 mg/kg or 2.0 mg/kg. Test item formulation was prepared in saline solution as a fresh solution, just before dosing. […] Food intake monitoring was performed 2, 4, 8 and 24 hours after single administration. […] While preferred embodiments of the present invention have been shown and described herein, it will be obvious to those skilled in the art that such embodiments are provided by way of example only. Numerous variations, changes, and substitutions will now occur to those skilled in the art without departing from the invention. It should be understood that various alternatives to the embodiments of the invention described herein may be employed in practicing the invention. It is intended that the following claims define the scope of the invention and that methods and structures within the scope of these claims and their equivalents be covered thereby.

[2] = molecular target: T1, rat PrRP receptor (GPR10) in RC-4B/C cells (Rattus norvegicus, UniProt Q64121); settings: Maletínská et al., 2011; cited from earlier work
T1 construct: The rat pituitary cell line RC-4B/C (ATCC, Manassas, USA) was grown on 24-well plates; host or cells: RC-4B/C rat pituitary cell line
T1 sequence (Q64121 1-370): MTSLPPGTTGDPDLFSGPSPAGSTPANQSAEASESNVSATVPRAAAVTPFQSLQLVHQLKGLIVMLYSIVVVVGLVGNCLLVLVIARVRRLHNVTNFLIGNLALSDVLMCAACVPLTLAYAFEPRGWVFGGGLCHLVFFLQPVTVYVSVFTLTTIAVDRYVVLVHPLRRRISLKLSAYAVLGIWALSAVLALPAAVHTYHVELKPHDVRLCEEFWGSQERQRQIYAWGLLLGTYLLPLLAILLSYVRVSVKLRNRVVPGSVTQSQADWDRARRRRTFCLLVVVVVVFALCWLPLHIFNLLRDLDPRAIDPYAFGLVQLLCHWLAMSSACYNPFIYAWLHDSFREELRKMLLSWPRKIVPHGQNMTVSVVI

fasted C57BL/6 mice [3] = experiment: Food intake in fasted mice after ICV administration; format: in vivo; settings: 4 nmol/mouse; for % control: food intake vs saline
Summary of the method: as §1

rats = settings: ICV, third brain ventricle, Lawrence et al.; cited from earlier work
[4] = system: MAPK/ERK1/2 signaling pathway in RC-4B/C cells; experiment: MAPK/ERK1/2 signaling in RC-4B/C cells (Western blot); format: cell-based, rat; settings: 10^−6 mol·l^−1, 5 minute incubation
[5] = molecular target: T1, rat PrRP receptor (GPR10) in RC-4B/C cells; experiment: Competitive binding to rat pituitary RC-4B/C cells; settings: ^125I-rat PrRP31, RC-4B/C cells

Compound: CCCCCCCCCCCCCC(=O)N[C@H](C(=O)N1CCC[C@H]1C(=O)N[C@@H](CC(=O)O)C(=O)N[C@H](C(=O)N[C@@H](CC(N)=O)C(=O)N1CCC[C@H]1C(=O)N[C@@H](C)C(=O)N[C@@H](Cc1c[nH]c2ccccc12)C(=O)N[C@@H](Cc1ccc(O)cc1)C(=O)N[C@@H](C)C(=O)N[C@@H](CO)C(=O)N[C@@H](CCCNC(=N)N)C(=O)NCC(=O)N[C@H](C(=O)N[C@@H](CCCNC(=N)N)C(=O)N1CCC[C@H]1C(=O)N[C@H](C(=O)NCC(=O)N[C@@H](CCCNC(=N)N)C(=O)N[C@@H](Cc1ccccc1)C(N)=O)C(C)C)[C@@H](C)CC)[C@@H](C)CC)[C@@H](C)O [Analog 55] (Myristoyl-TPDINPAWYASRGIRPVGRF-NH2)
- Food intake in mice (5 mg/kg SC) % saline-treated group (45 min) (fasted C57BL/6 mice [1]; fasted C57BL/6 mice, 5 mg/kg SC, 45 min): 10%
- Food intake (amount of pellets consumed) (Rhesus monkey): Significantly lower food intake

Compound: [Tyr^31]PrRP20: N-acetylated PrRP20 analog, C-terminal phenylalanine replaced by tyrosine (Maletínská et al., 2011) (Ac-TPDINPAWYASRGIRPVGRY-NH2; ends and bridges not checked; UniProt P81277 34-53, looked up, variant F31Y)
- Kb of binding to the pituitary cell line RC-4B/C [2]: comparable to values for PrRP31 and PrRP20

Compound: SRAHQHSMETRTPDINPAWYTGRGIRPVGRF-NH2 [PrRP31, reference compound]
- food intake (fasted C57BL/6 mice [3]; 45 minutes): 0.42 g
- % control (fasted C57BL/6 mice [3]; 45 minutes): 75%
- food intake (fasted C57BL/6 mice [3]; 300 minutes): 1.37 g
- % control (fasted C57BL/6 mice [3]; 300 minutes): 104%
- food intake (fasted C57BL/6 mice [1]; 45 minutes): 0.32 g
- % control (fasted C57BL/6 mice [1]; 45 minutes): 100%
- food intake (fasted C57BL/6 mice [1]; 300 minutes): 1.15 g
- % control (fasted C57BL/6 mice [1]; 300 minutes): 105%
- food intake in rats (rats): significant lowering of food intake
- ERK signaling [4]: agonist
- % of PrRP31 binding [5]: 100%
